Laboratory results: article PMC5467183 (ACS Medicinal Chemistry Letters, 2017)

How the values were obtained:
[1] = human hepatocytes
[2] = rat hepatocytes
[3] = MDCK, A to B
[4] = test system: collagen-induced arthritis (CIA) model in Lewis rat; conditions: 0.05 mg/kg daily, days 10–17
[5] = test system: CD86 surface expression on B cells; experiment: cells; conditions: Mus musculus, B-cell, read-out: CD86 IC50
physchem = conditions: pH 7.4, Sol. (kinetic solubility)
Rat pharmacokinetics = assay type: in vivo

Structure (SMILES) | HHep (projected hepatic clearance) [1] | RHep (projected hepatic clearance) [2] | Perm. [3] | other results
CN1CCN(c2ccc(Nc3cc(-c4cccc(N5CCn6c(cc7c6CCCC7)C5=O)c4CO)cn(C)c3=O)nc2)CC1 [compound 17] | 10 | 12 | MOD (MOD: 1–10 (10^–6 cm/s)) | 
Cn1cc(-c2cc(F)cc(N3CCn4c(cc5c4CCCC5)C3=O)c2CO)cc(Nc2ccc(N3CCN(C4COC4)CC3)cn2)c1=O [compound 20] | < 6 | < 10 | HIGH (HIGH: >10 (10^–6 cm/s)) | 
C[C@@H]1C[C@H]2[C@@H]3CCC4=CC(=O)C=C[C@]4(C)[C@@]3(F)[C@@H](O)C[C@]2(C)[C@@]1(O)C(=O)CO [dexamethasone] |  |  |  | ankle diameter [4]: significantly (by ANOVA) reduced toward normal
CN1CCN(c2ccc(Nc3cc(-c4cc(F)cc(N5CCn6c(cc7c6CCCC7)C5=O)c4CO)cn(C)c3=O)nc2)CC1 [compound 19] | < 6.2 | < 10.1 | MOD (MOD: 1–10 (10^–6 cm/s)) | 
Cn1cc(-c2cccc(N3CCc4cc(C(C)(C)C)ccc4C3=O)c2CO)cc(Nc2ccncn2)c1=O [compound 9] |  |  |  | IC50 [5]: < 100 nM; solubility kinetic (physchem): < 2 µM
Cn1cc(-c2cccc(N3CCn4c(cc5c4CCCC5)C3=O)c2CO)cc(Nc2ccc(N3CCN(C4COC4)CC3)cn2)c1=O [compound 18] | < 6 | < 10 | MOD (MOD: 1–10 (10^–6 cm/s)) | 
Cn1cc(-c2cccc(N3CCc4c(sc5c4CC(C)(C)C5)C3=O)c2CO)cc(Nc2ccncn2)c1=O [compound 7] |  |  |  | Rat CL (total clearance) (Rat pharmacokinetics; 1 mg/kg i.v.): 16 mL/min/kg; clearance (Rat pharmacokinetics; in vivo, iv, 1 mg/kg): 16 mL/min/kg; bioavailability (Rat pharmacokinetics; in vivo, po, 5 mg/kg, pH 3): 37%
